From US11518747B2, “Solid forms of an N-terminal domain androgen receptor inhibitor and uses thereof” (ESSA Pharma, Inc., priority 2020, dated 2022)
Converted amounts (≈) assume the structure as drawn.

Legend:
[1] = system: Androgen-induced PSA-luciferase activity; assay: Androgen-induced PSA (6.1 kb)-luciferase reporter assay in transiently transfected LNCaP cells; format: cell-based; settings: Homo sapiens, R1881 1 nM, 24 h
Experimental: To determine the IC50, treatments were normalized to the maximum activity with androgen-induction (in the absence of test compounds, vehicle only) (Table 12).
Luciferase Assay: Lysates were thawed on ice then collected into V-bottom 96-well tissue culture plates. Lysates were centrifuged at 4° C. for 5 minutes at 4000 rpm. To measure luminescence of LNCaP cell lysates the Firefly Luciferase Assay System (Promega) was employed, according to manufacturer's protocol.
Comparisons between treatment and control groups were compared using Two-Way ANOVA with post-hoc Dunnett's and Tukey's tests. Differences were considered statistically significant at P values less than 0.05. Densitometric quantification of relative AR levels was determined by Image.

[2] = Physical stability of solid forms (drying, storage, slurry; XRPD); format: physicochemical; settings: for XRPD result after stirring: RT, 4 d
Experimental: Based on experimental conditions to generate Material B and its drying studies, without being bound to any theory, Material B could be a solvated material which can convert to Material C upon drying.
In order to evaluate the relative stability between Form A and Material C, a competitive slurry was performed. About equal amounts (by mass) of Material C (mixture w/some Form A) and Form A were added to acetone so that solids persisted and were stirred at room temperature for 9 days. Solids were isolated by centrifugation using Spin-X centrifuge tubes equipped with a 0.45 μm nylon filter. Beige solids were observed. […] Material C could be an anhydrous material.
Further analyses including ^1H NMR and TGA were also collected on this amorphous sample (Table 10). The ^1H NMR spectrum was consistent with the chemical structure of Compound I and contains trace amount of DCM. By TGA (FIG. 9), about 1.0 wt % loss is observed from 45-200° C., which is likely due to the residual DCM and moisture in the material. The dramatic change in the slope of the TGA thermogram starting at 280° C. (onset) is likely associated with the decomposition of the material. […] A repeated rotary evaporation attempt from DCM solution generated disordered Compound I Form A (FIG. 7, second spectrum from bottom) after the sample was secondary dried at ambient temperature under vacuum for 3 days, which provides further evidence that amorphous Compound I is not physically stable.
Crystallization studies were performed on this disordered material (Table 10) and solids were stirred in acetone and H2O for 4 days at ambient conditions. Both experiments generated crystalline Form A (FIG. 10, bottom two spectra).

[3] = Dynamic vapor sorption (DVS) analysis; format: physicochemical; parameters: Hysteresis: unit not given here
Experimental: In one embodiment, the crystalline forms are characterized by Dynamic Vapor Sorption (DVS). The DVS profile is typically expressed by a diagram plotting the sample relative humidity (RH) versus the change in mass (%). The DVS profile provides information on hygroscopicity of the crystalline form at different RH conditions.
DVS (dynamic vapor sorption) analysis was carried out on Form A (Table 2, FIG. 3).

[4] = Equilibrium solubility acquired at 24 hours; format: physicochemical; settings: organic solvent or mixture, thermodynamic from solid
[5] = Approximate solubility by solvent aliquot addition, visual inspection; format: physicochemical; settings: organic solvent or mixture, thermodynamic from solid
Experimental: The approximate solubility of Compound I in various organic solvents was determined by adding solvent aliquots to weighed samples Compound I. Weighed samples of Compound I were treated with aliquots of the test solvents or solvent mixtures at ambient temperature. Complete dissolution of the test material was determined by visual inspection. Solubility was estimated based on the total solvent volume used to provide complete dissolution. The actual solubility may be greater than the value calculated because of the use of solvent aliquots that were too large or due to a slow rate of dissolution. If complete dissolution was not achieved during the experiment, the solubility is expressed as “less than” (<). If complete dissolution was achieved by only one aliquot addition, the value is reported as “larger than” (>).

[6] = Amorphous solubility by slow addition from organic stock into aqueous media (UV/Vis scattering, DLS); format: physicochemical; settings: for solubility: kinetic from dmso stock
From the text: Solubility: Generally, the solubility of an amorphous form is higher than that of the corresponding crystal form, due to the lack of crystalline lattice forces in the amorphous state. Solubility of the amorphous form of Compound I was studied by slow addition of the amorphous form from an organic stock solution into the pH 6.5 phosphate-buffered saline (PBS) solution or 0.5% wt simulated intestinal fluid (SIF) in pH 6.5 PBS. When the amorphous solubility is reached, a drug-rich phase forms which typically scatters light (e.g., liquid-liquid phase separation or LLPS), which can be detected by scattering of UV/Visible light and/or by dynamic light scattering (DLS).
No scattering event prior to crystallization was observed.

[7] = target RH 95.0 %, sample RH 96.0 %

In the case of CC(O)(CS(=O)(=O)c1ccc(F)cc1)C(=O)Nc1ccc(C#N)c(C(F)(F)F)c1 (stereo not drawn) [Bicalutamide], the IC50 [1] is reported as 306 nM.

With CC(C)(c1ccc(OCc2ccnc(NS(C)(=O)=O)n2)cc1)c1cc(Cl)c(OCCCl)c(C#N)c1 [Material D] the “XRPD result after drying” value ([2]; 50-52° C., vacuum, 3 d) was “desolvate into Form A”.

For CC(C)(c1ccc(OCc2ccnc(NS(C)(=O)=O)n2)cc1)c1cc(Cl)c(OCCCl)c(C#N)c1 [Form A, N-{4-[(4-{2-[3-chloro-4-(2-chloroethoxy)-5-cyanophenyl]propan-2-yl}phenoxy)methyl]pyrimidin-2-yl}methanesulfonamide], the “Relative stability, competitive slurry” value ([2]; Material C (with some Form A) and Form A in acetone, room temperature, 9 days) was “more stable than Material C”, the “Solids recovered after DVS analysis, by XRPD” value ([3]; after DVS cycle) was “consistent with Form A” and the “Total weight gain during sorption” value ([3]; from 5% to 95% RH) was 5.474%. The “Weight gain during sorption” value ([3]; from 55% to 85% RH) was 1.978 wt %, the “Weight gain during sorption” value ([3]; from 85% RH to 95% RH) was 3.106 wt % and the “Weight loss during desorption” value ([3]; from 95% RH to 5% RH) was 5.472%. For the same compound, the “Sorp Mass Change” value ([3]; target RH 5.0 %, sample RH 4.9 %) was 0.000%, the “Desorp Mass Change” value ([3]; target RH 5.0 %, sample RH 5.4 %) was 0.002% and the Hysteresis ([3]; target RH 15.0 %) was 0.013. The “Sorp Mass Change” value ([3]; target RH 15.0 %, sample RH 15.4 %) was 0.055%, the “Desorp Mass Change” value ([3]; target RH 15.0 %, sample RH 16.1 %) was 0.060% and the Hysteresis ([3]; target RH 25.0 %) was 0.036. The “Sorp Mass Change” value ([3]; target RH 25.0 %, sample RH 24.9 %) was 0.111%, the “Desorp Mass Change” value ([3]; target RH 25.0 %, sample RH 25.6 %) was 0.146% and the Hysteresis ([3]; target RH 45.0 %) was 0.474. The “Sorp Mass Change” value ([3]; target RH 45.0 %, sample RH 44.8 %) was 0.242%, the “Desorp Mass Change” value ([3]; target RH 45.0 %, sample RH 45.6 %) was 0.716% and the Hysteresis ([3]; target RH 55.0 %) was 0.650. The “Sorp Mass Change” value ([3]; target RH 55.0 %, sample RH 54.5 %) was 0.390%, the “Desorp Mass Change” value ([3]; target RH 55.0 %, sample RH 55.5 %) was 1.040% and the Hysteresis ([3]; target RH 65.0 %) was 0.452. For the same compound, the “Desorp Mass Change” value ([3]; target RH 65.0 %, sample RH 65.6 %) was 1.438%, the “Sorp Mass Change” value ([3]; target RH 65.0 %, sample RH […]) was 0.906% and the Hysteresis ([3]; target RH 75.0 %) was 0.364. For the same compound, the “Sorp Mass Change” value ([3]; target RH 75.0 %, sample RH 74.5 %) was 1.567%, the “Desorp Mass Change” value ([3]; target RH 75.0 %, sample RH 75.5 %) was 1.931% and the Hysteresis ([3]; target RH 85.0 %) was 0.604. For the same compound, the “Sorp Mass Change” value ([3]; target RH 85.0 %, sample RH 84.7 %) was 2.368%, the “Desorp Mass Change” value ([3]; target RH 85.0 %, sample RH 85.8 %) was 2.072% and the “Desorp Mass Change” value [3, 7] was 5.474%. For the same compound, the “Sorp Mass Change” value [3, 7] was 5.474%, the Hysteresis ([3]; target RH […]) was 0.108 and the “Sorp Mass Change” value ([3]; target RH […], sample RH 34.5 %) was 0.169%. For the same compound, the “Desorp Mass Change” value ([3]; target RH […], sample RH 35.3 %) was 0.277%, the Hygroscopicity ([3]; within 5%-55% RH) was “low hygroscopicity” and the Hygroscopicity ([3]; within 55%-85% RH) was “limited hygroscopicity”. The Hygroscopicity ([3]; within 85%-95% RH) was “significant hygroscopicity”.

CC(C)(c1ccc(OCc2ccnc(NS(C)(=O)=O)n2)cc1)c1cc(Cl)c(OCCCl)c(C#N)c1 [Compound I, N-{4-[(4-{2-[3-chloro-4-(2-chloroethoxy)-5-cyanophenyl]propan-2-yl}phenoxy)methyl]pyrimidin-2-yl}methanesulfonamide] showed a solubility at 24 h ([4]; ACN) of 2040 µg/mL (≈ 3.81 mM), a solubility at 24 h ([4]; DMSO) of over 12000 µg/mL and a solubility at 24 h ([4]; EtOAc) of 1970 µg/mL (≈ 3.68 mM). The solubility at 24 h ([4]; EtOH) was 170 µg/mL (≈ 0.317 mM), the solubility at 24 h ([4]; MeOH) was 210 µg/mL (≈ 0.392 mM) and the solubility at 24 h ([4]; acetone) was 5300 µg/mL (≈ 9.9 mM). It also gave a solubility ([5]; dioxane (printed 'dioxant'), dioxant, ambient temperature, read-out: Solubility) of over 107000 µg/mL, a solubility ([5]; DCM, ambient temperature, read-out: Solubility) of 20000 µg/mL (≈ 37.4 mM) and a solubility ([5]; DMA, ambient temperature, read-out: Solubility) of over 79000 µg/mL. For the same compound, the solubility ([5]; Et2O, ambient temperature, read-out: Solubility) was under 2000 µg/mL, the solubility ([5]; MEK, ambient temperature, read-out: Solubility) was 6000 µg/mL (≈ 11.2 mM) and the solubility ([5]; MTBE, ambient temperature, read-out: Solubility) was under 1000 µg/mL. It also gave a solubility ([5]; NMP, ambient temperature, read-out: Solubility) of over 117000 µg/mL, a solubility ([5]; THF, ambient temperature, read-out: Solubility) of 54000 µg/mL (≈ 101 mM) and a solubility ([5]; iPrOAc, ambient temperature, read-out: Solubility) of under 1000 µg/mL. For the same compound, the solubility ([5]; p-dioxane, from observations on samples at much larger scales, read-out: Approximate solubility) was 35000 to 103000 µg/mL (≈ 65.4 to 192 mM), the solubility ([5]; toluene, ambient temperature, read-out: Solubility) was 1000 µg/mL (≈ 1.87 mM) and the IC50 [1] was 535 nM. For the same compound, the Crystalline solubility [6] was “very low”.

In the case of CC(C)(c1ccc(OCc2ccnc(NS(C)(=O)=O)n2)cc1)c1cc(Cl)c(OCCCl)c(C#N)c1 [Disordered], the “XRPD result after stirring” value ([2]; H2O) is reported as “Form A” and the “XRPD result after stirring” value ([2]; acetone) is reported as “Form A”.

With CC(C)(c1ccc(OCc2ccnc(NS(C)(=O)=O)n2)cc1)c1cc(Cl)c(OCCCl)c(C#N)c1 [Material B] the Stability upon drying [2] was “unstable upon drying”, the “XRPD result after drying” value ([2]; 65-66° C., vacuum, 5 d) was “mixture of Form A and Material C” and the “XRPD result after drying” value ([2]; RT (ambient), on filter paper, 3 d) was “disordered Material C”.

In the case of CC(C)(c1ccc(OCc2ccnc(NS(C)(=O)=O)n2)cc1)c1cc(Cl)c(OCCCl)c(C#N)c1 [amorphous form of Compound I], the “XRPD result after storage” value ([2]; ambient (RT), desiccator, about 10 days) is reported as “disordered Form A”, the Physical stability ([2]; ambient temperature) is reported as “physically not stable” and the solubility ([6]; 0.5% wt simulated intestinal fluid in PBS, fassgf or other biorelevant, 0.5% SIF (pH 6.5)) is reported as over 25 µg/mL. For the same compound, the solubility ([6]; phosphate-buffered saline, aqueous buffer, pH 6.5 PBS) was over 2.5 µg/mL and the “Amorphous solubility relative to crystalline solubility” value ([6]; simulated intestinal media) was “at least 20 ×”.

In the case of CC(C)(c1ccc(OC[C@H](O)CNS(C)(=O)=O)cc1)c1cc(Cl)c(OC[C@H](O)CCl)c(Cl)c1 [Reference Compound X], the IC50 [1] is reported as 1050 nM.
